Data taken from ChEMBL document CHEMBL6177953, “Discovery of a novel quinoxaline derivative modulator via a dual P53/TLR2 targeting strategy for the alleviation of radiation damage” (Eur J Med Chem, 2025).
Activity calls are given as the source filed them. The rule behind the calls is not given here.

Legend:
[1] = test system: AHH-1; assay: Antiradiation activity in human AHH-1 cells assessed as increase in cell viability at 2.5 micromol/L pre-treated with compound for 24 hrs followed by irradiation at 6 Gy measured after 24 hrs by CCK-8 assay; format: functional, cell-based; conditions: dose 2.5 µmol/L, time 48.0 hrs
[2] = test system: Mus musculus; assay: Radioprotective activity in male C57BL/6J mouse assessed as increase in cell growth at 250 to 300 mg/kg, ip pre-treated with compound for 24.25 hrs followed by irradiation at 6.5 Gy and measured on 30 day post irradiation; format: functional, organism-based; conditions: dose 250-300 mg/kg, time 744.25 hrs
[3] = Cytotoxicity against HUVEC incubated for 24 to 96 hrs by CCK-8 assay; format: toxicity, cell-based; conditions: human, HUVEC cells
[4] = test system: AHH-1; assay: Cytotoxicity against human AHH-1 cells incubated for 24 to 96 hrs by CCK-8 assay; format: functional, cell-based
[5] = test system: Mus musculus; assay: Radioprotective activity in male C57BL/6J mouse assessed as survival rate at 250 mg/kg, ip pre-treated with compound for 24.25 hrs followed by irradiation at 8.5 Gy and measured for 30 days post irradiation relative to control; format: functional; conditions: time 744.25 hrs
[6] = test system: Mus musculus; assay: Radioprotective activity in male C57BL/6J mouse assessed as time required to increase in WBC count at 250 mg/kg, ip pre-treated with compound for 24.25 hrs followed by irradiation at 6.5 Gy and measured on 30 day post irradiation; format: functional; conditions: time 744.25 hrs
[7] = test system: Mus musculus; assay: Radioprotective activity in male C57BL/6J mouse assessed as time required to increase in RBC count at 250 mg/kg, ip pre-treated with compound for 24.25 hrs followed by irradiation at 6.5 Gy and measured on 30 day post irradiation; format: functional; conditions: time 744.25 hrs
[8] = test system: Mus musculus; assay: Radioprotective activity in male C57BL/6J mouse assessed as attenuation of spleen atrophy at 250 mg/kg, ip pre-treated with compound for 24.25 hrs followed by irradiation at 13 Gy and measured on 3.5 day post irradiation; format: functional, organism-based; conditions: time 108.25 hrs
[9] = biological target: T1, Toll-like receptor 2 (Homo sapiens, UniProt O60603); assay: Binding affinity to TLR2 (unknown origin) by SPR analysis; conditions: filed as modulator, dose 312.5-10000 nM
[10] = test system: HUVEC; assay: Upregulation of MyD88 expression in HUVEC incubated for 24 hrs in presence of irradiation by Co-immunoprecipitation analysis; format: functional, cell-based; conditions: Homo sapiens
[11] = test system: AHH-1; assay: Induction of apoptosis in human AHH-1 cells assessed as early apoptotic cells pre-treated with compound for 24 hrs followed by irradiation at 6 Gy and measured after 24 hrs by Annexin V-FITC/PI staining based Flow cytometry analysis (reference value: 8.15%); format: functional; conditions: time 48 hrs
[12] = test system: HUVEC; assay: Upregulation of IL-6 secretion in HUVEC at 20 to 80 uM incubated for 24 hrs in presence of irradiation by ELISA; format: functional, cell-based; conditions: Homo sapiens, dose 20-80 µM
[13] = test system: AHH-1; assay: Induction of apoptosis in human AHH-1 cells assessed as necrotic cells pre-treated with compound for 24 hrs followed by irradiation at 6 Gy and measured after 24 hrs by Annexin V-FITC/PI staining based Flow cytometry analysis (reference value: 5.37%); format: functional; conditions: time 48 hrs
[14] = test system: AHH-1; assay: Induction of DNA damage repair activity in 6 Gy radiation-induced human AHH-1 cells assessed as downregulation of Bax level pre-treated with compound for 24 hrs followed by irradiation by Co-immunoprecipitation analysis; format: functional, cell-based
[15] = test system: HUVEC; assay: Antiradiation activity in human HUVEC assessed as cell viability at 5 to 20 micromol/L pre-treated with compound for 24 hrs followed by irradiation at 6 Gy measured after 96 hrs by CCK-8 assay; format: functional, cell-based; conditions: dose 5-20 µmol/L, time 120.0 hrs
[16] = test system: AHH-1; assay: Antiradiation activity in human AHH-1 cells assessed as increase in cell viability at 2.5 to 10 micromol/L pre-treated with compound for 24 hrs followed by irradiation at 4 Gy measured after 24 hrs by CCK-8 assay; format: functional, cell-based; conditions: dose 2.5-10 µmol/L, time 48.0 hrs
[17] = test system: AHH-1; assay: Induction of DNA damage repair activity in 6 Gy radiation-induced human AHH-1 cells assessed as downregulation of P53 level pre-treated with compound for 24 hrs followed by irradiation by Co-immunoprecipitation analysis; format: functional, cell-based
[18] = test system: Mus musculus; assay: Radioprotective activity in male C57BL/6J mouse assessed as time required to increase in platelets at 250 mg/kg, ip pre-treated with compound for 24.25 hrs followed by irradiation at 6.5 Gy and measured on 30 day post irradiation; format: functional; conditions: time 744.25 hrs
[19] = test system: Mus musculus; assay: Radioprotective activity in male C57BL/6J mouse assessed as increase in body weight at 250 mg/kg, ip pre-treated with compound for 24.25 hrs followed by irradiation at 8.5 Gy and measured on day 18 post irradiation; format: functional, organism-based; conditions: time 456.25 hrs
[20] = test system: AHH-1; assay: Antiradiation activity in human AHH-1 cells assessed as increase in cell viability at 2.5 micromol/L pre-treated with compound for 24 hrs followed by irradiation at 8 Gy measured after 24 hrs by CCK-8 assay; format: functional, cell-based; conditions: dose 2.5 µmol/L, time 48.0 hrs
[21] = test system: AHH-1; assay: Induction of apoptosis in human AHH-1 cells assessed as late apoptotic cells pre-treated with compound for 24 hrs followed by irradiation at 6 Gy and measured after 24 hrs by Annexin V-FITC/PI staining based Flow cytometry analysis (reference value: 2.65%); format: functional; conditions: time 48 hrs
[22] = test system: AHH-1; assay: Antiradiation activity in human AHH-1 cells assessed as increase in cell viability at 2.5 micromol/L pre-treated with compound for 24 hrs followed by irradiation at 4 Gy measured after 24 hrs by CCK-8 assay; format: functional, cell-based; conditions: dose 2.5 µmol/L, time 48.0 hrs
[23] = test system: AHH-1; assay: Antiradiation activity in human AHH-1 cells assessed as increase in cell viability at 2.5 to 10 micromol/L pre-treated with compound for 24 hrs followed by irradiation at 8 Gy measured after 24 hrs by CCK-8 assay; format: functional, cell-based; conditions: dose 2.5-10 µmol/L, time 48.0 hrs
[24] = test system: AHH-1; assay: Induction of apoptosis in human AHH-1 cells assessed as viable cells pre-treated with compound for 24 hrs followed by irradiation at 6 Gy and measured after 24 hrs by Annexin V-FITC/PI staining based Flow cytometry analysis (reference value: 83.6%); format: functional; conditions: time 48 hrs
[25] = test system: HUVEC; assay: Upregulation of P65 expression in HUVEC incubated for 24 hrs in presence of irradiation by Co-immunoprecipitation analysis; format: functional, cell-based; conditions: Homo sapiens
[26] = test system: Mus musculus; assay: Radioprotective activity in male C57BL/6J mouse assessed as increase in crypts villus length in mouse jejunum at 250 mg/kg, ip pre-treated with compound for 24.25 hrs followed by irradiation at 13 Gy and measured on 3.5 day post irradiation; format: functional, organism-based; conditions: time 108.25 hrs
[27] = biological target: T1, Toll-like receptor 2; assay: Binding affinity to TLR2 (unknown origin) assessed as dissociation constant by SPR analysis
[28] = test system: AHH-1; assay: Antiradiation activity in human AHH-1 cells assessed as increase in cell viability at 2.5 to 10 micromol/L pre-treated with compound for 24 hrs followed by irradiation at 6 Gy measured after 24 hrs by CCK-8 assay; format: functional, cell-based; conditions: dose 2.5-10 µmol/L, time 48.0 hrs
[29] = test system: HUVEC; assay: Antiradiation activity in human HUVEC assessed as cell viability at 5 to 20 micromol/L pre-treated with compound for 24 hrs followed by irradiation at 8 Gy measured after 96 hrs by CCK-8 assay; format: functional, cell-based; conditions: dose 5-20 µmol/L, time 120.0 hrs
[30] = test system: Mus musculus; assay: Radioprotective activity in male C57BL/6J mouse assessed as increase in body weight at 250 mg/kg, ip pre-treated with compound for 24.25 hrs followed by irradiation at 8.5 Gy and measured on day 1 post irradiation; format: functional, organism-based; conditions: time 48.25 hrs
[31] = test system: Mus musculus; assay: Radioprotective activity in male C57BL/6J mouse assessed as time required to increase in neutrophil count at 250 mg/kg, ip pre-treated with compound for 24.25 hrs followed by irradiation at 6.5 Gy and measured on 30 day post irradiation; format: functional; conditions: time 744.25 hrs
[32] = test system: AHH-1; assay: Radioprotective activity against 6 Gy radiation-induced DNA damage in human AHH-1 cells assessed as attenuation of gamma-H2AX expression incubated for 0.5 to 2 hrs by immunohistochemical staining based confocal fluorescence microscopic analysis; format: functional, cell-based; conditions: time 0.5-2 hrs

T1 sequence (O60603 whole entry): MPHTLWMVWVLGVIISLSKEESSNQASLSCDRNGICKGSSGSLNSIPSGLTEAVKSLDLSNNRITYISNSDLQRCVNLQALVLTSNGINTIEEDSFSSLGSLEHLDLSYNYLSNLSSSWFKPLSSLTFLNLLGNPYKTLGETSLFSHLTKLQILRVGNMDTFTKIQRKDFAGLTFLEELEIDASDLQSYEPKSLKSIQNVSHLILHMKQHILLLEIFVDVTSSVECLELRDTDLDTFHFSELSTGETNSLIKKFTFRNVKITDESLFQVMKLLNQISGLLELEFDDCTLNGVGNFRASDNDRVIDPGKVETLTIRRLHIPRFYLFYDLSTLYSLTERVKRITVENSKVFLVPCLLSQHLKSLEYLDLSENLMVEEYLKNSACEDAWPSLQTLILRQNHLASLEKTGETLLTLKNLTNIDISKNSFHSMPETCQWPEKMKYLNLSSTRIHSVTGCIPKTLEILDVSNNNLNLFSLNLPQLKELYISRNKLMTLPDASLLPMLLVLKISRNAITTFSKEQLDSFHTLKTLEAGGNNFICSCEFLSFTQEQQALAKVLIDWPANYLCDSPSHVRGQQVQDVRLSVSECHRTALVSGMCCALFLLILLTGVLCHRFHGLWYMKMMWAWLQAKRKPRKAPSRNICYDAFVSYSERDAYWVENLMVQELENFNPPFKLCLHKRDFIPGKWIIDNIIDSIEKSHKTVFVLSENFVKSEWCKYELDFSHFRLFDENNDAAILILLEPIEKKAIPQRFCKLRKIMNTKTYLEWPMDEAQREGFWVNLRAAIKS

N#Cc1ccc(CS(=O)(=O)c2cnc3ccccc3n2)cc1
Activity [1]: Active
Activity [2]: Active
IC50 [3]: > 60 µM
IC50 [4]: > 60 µM
Activity [5]: 100%
Time [6]: 10 days
Time [7]: 14 days
Activity [8]: Active
Activity [9]: Dose-dependent-effect
Activity [10]: Active
Activity [11]: 13.1%
Activity [12]: Active
Activity [13]: 8.81%
Activity [14]: Active
Activity [15]: Active
Activity [16]: Active
Activity [17]: Active
Time [18]: 14 days
Activity [19]: Active; Compound Showed Significant Regaining Effect
Activity [20]: Active
Activity [21]: 6.07%
Activity [22]: Active
Activity [23]: Active
Activity [24]: 72%
Activity [25]: Active
Activity [26]: Active
Kd [27]: 3.93 µM
Activity [28]: Active
Activity [29]: Active
Activity [30]: inactive
Time [31]: 14 days
Activity [32]: Active
